Assay results published in PubChem BioAssay (NCI).
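Where inhibition never reached the appropriate level, the endpoint shown equals the highest concentration tested. Otherwise, values were interpolated linearly from a five-concentration, 48-hour dose response in 96-well plates. TGI: total growth inhibition.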

Experiments:
Experiment in all cases: NCI tumour cell line growth inhibition, 48 h
[1] = test system: A549 NSCLC
[2] = test system: DLD-1 colon
[3] = test system: SN12K1 renal
[4] = test system: CCRF-CEM leukemia
[5] = test system: NCI/ADR-RES ovarian
[6] = test system: EKVX NSCLC
[7] = test system: P388/ADR leukemia
[8] = test system: OVCAR-5 ovarian
[9] = test system: HCT-15 colon
[10] = test system: KM20L2 colon
[11] = test system: OVCAR-3 ovarian
[12] = test system: MCF7 breast
[13] = test system: SF-295 CNS
[14] = test system: HOP-18 NSCLC
[15] = test system: UACC-62 melanoma
[16] = test system: NCI-H460 lung
[17] = test system: MALME-3M melanoma
[18] = test system: DMS 114 small cell lung
[19] = test system: OVCAR-8 ovarian
[20] = test system: KM12 colon
[21] = test system: A498 renal
[22] = test system: SNB-75 CNS
[23] = test system: NCI-H23 lung
[24] = test system: UO-31 renal
[25] = test system: OVCAR-4 ovarian
[26] = test system: SK-MEL-5 melanoma
[27] = test system: HOP-62 NSCLC
[28] = test system: COLO 205 colon
[29] = test system: UACC-257 melanoma
[30] = test system: NCI-H522 lung
[31] = test system: XF 498 CNS
[32] = test system: RXF 393 renal
[33] = test system: NCI-H226 lung
[34] = test system: SK-MEL-2 melanoma
[35] = test system: SF-539 CNS
[36] = test system: HL-60(TB) leukemia
[37] = test system: HCT-116 colon
[38] = test system: DMS 273 small cell lung
[39] = test system: M19-MEL melanoma
[40] = test system: P388 leukemia
[41] = test system: MOLT-4 leukemia
[42] = test system: LOX IMVI melanoma
[43] = test system: SK-OV-3 ovarian
[44] = test system: SW-620 colon
[45] = test system: SK-MEL-28 melanoma
[46] = test system: U251 CNS
[47] = test system: K-562 leukemia
[48] = test system: SNB-78 CNS
[49] = test system: SN12C renal
[50] = test system: HCC-2998 colon
[51] = test system: SNB-19 CNS
[52] = test system: IGROV1 ovarian
[53] = test system: RPMI-8226 leukemia
[54] = test system: HT29 colon
[55] = test system: SF-268 CNS
[56] = test system: ACHN renal
[57] = test system: M14 melanoma
[58] = test system: TK-10 renal
[59] = test system: HOP-92 NSCLC
[60] = test system: CAKI-1 renal
[61] = test system: SR leukemia
[62] = test system: RXF-631 renal
[63] = test system: LXFL 529 NSCLC
[64] = test system: 786-0 renal

With `C=CC1(NC(=O)c2ccccc2)CCC(C(C)(C)C)CC1` (stereo unspecified) the TGI [1] was > 100 µM, the TGI [2] was > 100 µM and the TGI [3] was > 96.7 µM. For the same compound, the TGI [4] was 72.1 µM, the TGI [5] was 76.1 µM and the TGI [6] was > 83.2 µM. The TGI [7] was > 77.4 µM, the TGI [8] was > 100 µM and the TGI [9] was > 85 µM. The TGI [10] was 39.7 µM, the TGI [11] was 86.7 µM and the TGI [12] was > 83.5 µM. The TGI [13] was 74 µM, the TGI [14] was > 95.6 µM and the TGI [15] was 97.8 µM. For the same compound, the TGI [16] was > 92.3 µM, the TGI [17] was > 94.9 µM and the TGI [18] was > 90.7 µM. The TGI [19] was > 100 µM, the TGI [20] was > 100 µM and the TGI [21] was > 100 µM. The TGI [22] was > 81.5 µM, the TGI [23] was > 85 µM and the TGI [24] was 77.7 µM. For the same compound, the TGI [25] was > 100 µM, the TGI [26] was 43.9 µM and the TGI [27] was > 90.5 µM. The TGI [28] was 43.2 µM, the TGI [29] was > 77 µM and the TGI [30] was 94 µM. For the same compound, the TGI [31] was > 70.6 µM, the TGI [32] was > 85.8 µM and the TGI [33] was > 71.6 µM. For the same compound, the TGI [34] was 56.6 µM, the TGI [35] was > 100 µM and the TGI [36] was 33 µM. For the same compound, the TGI [37] was 55.1 µM, the TGI [38] was > 73.2 µM and the TGI [39] was 84.4 µM. It also gave a TGI [40] of 38.4 µM, a TGI [41] of 30.3 µM and a TGI [42] of 39.3 µM. The TGI [43] was > 100 µM, the TGI [44] was > 84.4 µM and the TGI [45] was > 100 µM. For the same compound, the TGI [46] was 53.8 µM, the TGI [47] was > 100 µM and the TGI [48] was > 100 µM. The TGI [49] was > 61.4 µM, the TGI [50] was > 100 µM and the TGI [51] was > 100 µM. The TGI [52] was > 100 µM, the TGI [53] was > 100 µM and the TGI [54] was 55 µM. For the same compound, the TGI [55] was > 100 µM.

For `O=c1nc(NC2CCCCO2)ccn1CCO` (stereo unspecified), the TGI [1] was > 100 µM, the TGI [56] was > 100 µM and the TGI [57] was > 100 µM. The TGI [2] was > 100 µM, the TGI [58] was > 100 µM and the TGI [4] was > 100 µM. The TGI [6] was > 100 µM, the TGI [8] was > 100 µM and the TGI [9] was > 100 µM. For the same compound, the TGI [10] was > 100 µM, the TGI [11] was > 100 µM and the TGI [13] was > 100 µM. For the same compound, the TGI [14] was > 100 µM, the TGI [15] was > 100 µM and the TGI [16] was > 100 µM. The TGI [17] was > 100 µM, the TGI [18] was > 100 µM and the TGI [19] was > 100 µM. The TGI [20] was > 100 µM, the TGI [21] was > 100 µM and the TGI [22] was > 100 µM. The TGI [24] was > 100 µM, the TGI [25] was > 100 µM and the TGI [26] was > 100 µM. For the same compound, the TGI [27] was > 100 µM, the TGI [28] was > 100 µM and the TGI [59] was > 100 µM. For the same compound, the TGI [29] was > 100 µM, the TGI [60] was > 100 µM and the TGI [30] was > 100 µM. For the same compound, the TGI [61] was > 100 µM, the TGI [31] was > 100 µM and the TGI [32] was > 100 µM. For the same compound, the TGI [33] was > 100 µM, the TGI [34] was > 100 µM and the TGI [35] was > 100 µM. The TGI [36] was > 100 µM, the TGI [37] was > 100 µM and the TGI [38] was > 100 µM. For the same compound, the TGI [62] was > 100 µM, the TGI [39] was > 100 µM and the TGI [42] was > 100 µM. For the same compound, the TGI [43] was > 100 µM, the TGI [44] was > 100 µM and the TGI [45] was > 100 µM. For the same compound, the TGI [46] was > 100 µM, the TGI [47] was > 100 µM and the TGI [48] was > 100 µM. The TGI [49] was > 100 µM, the TGI [52] was > 100 µM and the TGI [63] was > 100 µM. For the same compound, the TGI [53] was > 100 µM, the TGI [54] was > 100 µM and the TGI [64] was > 100 µM. The TGI [55] was > 100 µM.

In the case of `O=c1[nH]cc(COCCCO)c(=O)[nH]1`, the TGI [1] is reported as > 100 µM, the TGI [56] is reported as > 100 µM and the TGI [57] is reported as > 100 µM. For the same compound, the TGI [2] was > 100 µM, the TGI [58] was > 100 µM and the TGI [4] was > 100 µM. The TGI [6] was > 100 µM, the TGI [8] was > 100 µM and the TGI [9] was > 100 µM. For the same compound, the TGI [10] was > 100 µM, the TGI [11] was > 100 µM and the TGI [13] was > 100 µM. The TGI [14] was > 100 µM, the TGI [15] was > 100 µM and the TGI [16] was > 100 µM. For the same compound, the TGI [17] was > 100 µM, the TGI [19] was > 100 µM and the TGI [20] was > 100 µM. The TGI [21] was > 100 µM, the TGI [22] was > 100 µM and the TGI [23] was > 100 µM. The TGI [24] was > 100 µM, the TGI [25] was > 100 µM and the TGI [26] was > 100 µM. The TGI [27] was > 100 µM, the TGI [28] was > 100 µM and the TGI [59] was > 100 µM. For the same compound, the TGI [29] was > 100 µM, the TGI [60] was > 100 µM and the TGI [30] was > 100 µM. The TGI [61] was > 100 µM, the TGI [31] was > 100 µM and the TGI [32] was > 100 µM. The TGI [33] was > 100 µM, the TGI [34] was > 100 µM and the TGI [35] was > 100 µM. The TGI [36] was > 100 µM, the TGI [37] was > 100 µM and the TGI [38] was > 100 µM. For the same compound, the TGI [39] was > 100 µM, the TGI [41] was > 100 µM and the TGI [42] was > 100 µM. For the same compound, the TGI [43] was > 100 µM, the TGI [44] was > 100 µM and the TGI [45] was > 100 µM. For the same compound, the TGI [46] was > 100 µM, the TGI [47] was > 100 µM and the TGI [48] was > 100 µM. For the same compound, the TGI [49] was > 100 µM, the TGI [51] was > 100 µM and the TGI [52] was > 100 µM. The TGI [63] was > 100 µM, the TGI [53] was > 100 µM and the TGI [54] was > 100 µM. The TGI [64] was > 100 µM and the TGI [55] was > 100 µM.
